K data for 1 compound are collected here from article PMC8308135 (2021).

The test system of this experiment is A15T3 dsDNA (DNA, duplex) AAAAAAAAAAAAAAATCGTCGTCGTCGTCGTCGAAAAAAAAAAAAAAAAAGCAGTTGATCGTTTGGATACCCTGG/TTCGACGACGACGACGACGATTT
Description: fluorescence quenching, log[(F0-F)/F] against log[DNA]. To be noted: unit not given; free DNA presumed to be A15T3 dsDNA; buffer of titration not stated.

In turn, `COc1cccc2c1C(=O)c1c(O)c3c(c(O)c1C2=O)C[C@@](O)(C(=O)CO)C[C@@H]3O[C@H]1C[C@H](N)[C@H](O)[C@H](C)O1` had a K of 0.026.
